The values below come from PMC9827972, “Identification of 2,4‐Dinitro‐Biphenyl‐Based Compounds as MAPEG Inhibitors” (Chemmedchem, 2022).

Usually IC50 stands for the concentration that gives 50% inhibition.

Experiment [1] concerns 5‐LOX product formation in human neutrophils. In words: 5-LOX product formation in intact human neutrophils stimulated with A23187 (FLAP-dependent). Particulars: Neutrophil, read-out: IC50 cell‐based 5‐LOX. The method, then:
Blood cell isolation and cultivation of cell lines. Human neutrophils were freshly isolated from peripheral blood obtained at the Institute for Transfusion Medicine of the University Hospital Jena (Germany) as described.[45] Briefly, human peripheral blood was collected in heparinized tubes (16 I. E. heparin/mL blood) by venipuncture from fasted (12 h) adult healthy volunteers, with consent, and leukocyte concentrates were prepared by centrifugation (4000×g, 20 min, 20 °C). The subjects had no apparent inflammatory conditions and had not taken anti‐inflammatory drugs for at least ten days prior to blood collection. Neutrophils were immediately isolated by dextran sedimentation and centrifugation on Nycoprep cushions (PAA Laboratories, Linz, Austria) and hypotonic lysis of erythrocytes was performed under hypotonic conditions. Neutrophils were finally resuspended in PBS pH 7.4 containing 1 mg/mL glucose and 1 mM CaCl2 (purity >96‐97 %).
5‐LOX activity assay. […] […] 30 μL 1 N HCl and 500 μL PBS, and 200 ng PGB1 were added and the samples were subjected to solid phase extraction on C18‐columns (100 mg, UCT, Bristol, PA, USA). 5‐LOX products (LTB4, all‐trans isomers of LTB4, and 5‐hydro(pero)xy‐6,8,11,14‐ eicosatetraenoic acid (5‐H(p)ETE) were analyzed by RP‐HPLC and quantities calculated referencing to the internal standard PGB1.

The target of a further experiment is T1, human recombinant LTC4S (Homo sapiens, UniProt Q16873).
T1 construct: expressed in transfected cells; host or cells: HEK293 cells stably expressing LTC4S; microsomal fraction
T1 sequence (Q16873 1-150): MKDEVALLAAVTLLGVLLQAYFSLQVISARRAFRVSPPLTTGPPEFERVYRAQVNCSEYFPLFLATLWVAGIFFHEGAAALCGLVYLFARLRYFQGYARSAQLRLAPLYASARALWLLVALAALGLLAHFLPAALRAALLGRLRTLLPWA
As to the kind of experiment: Determination of LTC4 synthase activity in microsomes of HEK293 cells expressing LTC4S. Format: biochemical. As to conditions: for inhibition of LTC4S activity (in words): microsomal preparations of HEK293 cells expressing human recombinant LTC4S. The method, then: Determination of LTC4 synthase activity. HEK293 cells stably expressing human recombinant LTC4S (HEK_LTC4S) were used to generate microsomes containing LTC4S. Briefly, HEK_LTC4S cells were frozen in liquid nitrogen and sonicated 3×20 s at 4 °C in homogenization buffer (0.1 M potassium phosphate buffer, pH 7.4, 1 mM phenylmethanesulfonylfluoride, 60 μg/mL soybean trypsin inhibitor, 1 μg/mL leupeptin, 2.5 mM glutathione, and 250 mM sucrose). Lysates were sequentially centrifuged at 10,000×g, 10 min at 4 °C and 174,000×g for 1 h at 4 °C. The microsomal fraction (2.5 μg) was resuspended in assay buffer (0.1 M potassium buffer pH 7.4, plus 5 mM glutathione) and preincubated with the test compound or vehicle (0.1 % DMSO) for 10 min at 4 °C. The reactions were started by adding 1 μM LTA4‐methyl ester (Cayman, Ann Arbor, MI) and stopped after 10 min incubation at 4 °C by 1 vol. ice‐cold methanol. Acidified PBS and LTC4‐methyl ester‐d5 as internal standard were added prior solid phase extraction, and LTC4‐methyl ester formation was analyzed by UPLC‐MS/MS as described.[43] UPLC‐MS/MS was carried out by Acquity UPLC BEH C18 column (1.7 μm, 2.1×50 mm, waters) and QTRAP 5500 Mass spectrometer (AB Sciex). LTC4‐methyl ester and LTC4‐d5 methyl ester (standard) were detected by multiple reaction monitoring in the negative ion mode by a method described previously.[44]
Reversed phase liquid chromatography and mass spectrometry. LTC4S metabolites were separated on an Acquity ultra performance liquid chromatography (UPLC) BEH C18 column (1.7 μm, 2.1×50 mm, Waters, Milford, MA) using an Acquity^TM UPLC system (Waters, Milford, MA, USA) as previously described.[42] The chromatography system was coupled to a QTRAP 5500 Mass Spectrometer (AB Sciex, Darmstadt, Germany) equipped with an electrospray ionization source. LTC4S metabolites were quantified by multiple reaction monitoring in the negative using a previously reported method with a lower limit of detection of 150 to 600 pg mL^−1 and linear quantification range up to 200 ng mL^−1.[22] Automatic peak integration was performed with ANALYST 1.6 software (Sciex, Darmstadt, Germany) using IntelliQuan default settings. Data were normalized on the internal standard PGB1 and are given as relative intensities.

For experiment [2], the target named is T2, mPGES‐1 (Homo sapiens, UniProt O14684).
T2 construct: Microsomes derived from A549 cells expressing mPGES‐1; endogenous in cells; host or cells: A549 cells (microsomes)
T2 sequence (O14684 1-152): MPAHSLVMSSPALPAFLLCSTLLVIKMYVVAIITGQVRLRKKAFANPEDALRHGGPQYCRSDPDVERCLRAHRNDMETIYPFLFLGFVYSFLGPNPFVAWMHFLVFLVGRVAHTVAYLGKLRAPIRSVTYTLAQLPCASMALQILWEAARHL
As to conditions: cell-free; cited from earlier work.

Experiment [3] addresses T2, mPGES‐1. In words: mPGES-1 washout assay in microsomes of A549 cells. Type of experiment: biochemical. As to conditions: for residual mPGES-1 enzyme activity: % of vehicle control. The method, then:
mPGES‐1 washout assay. Microsomes derived from A549 cells expressing mPGES‐1 were incubated with low (1 μM) or high concentrations (10 μM) of compound 1 d. After 15 min an aliquot of the sample containing 10 μM 1 d was diluted 10‐fold with buffer to reach a final concentration of 1 μM. After another 5 min the substrate PGH2 (20 μM) was added. The reaction was stopped after 60 s to determine PGE2 formation. Washout data are presented as means of residual activity ± SD in % of vehicle treated control for n=3 independent experiments. Outliers were determined using Grubb's test (GraphPad Software, La Jolla, CA). Samples were not blinded.

The target of experiment [4] is T3, 5‐LOX/FLAP interaction (Homo sapiens, UniProt P20292).
T3 construct: expressed in transfected cells; host or cells: HEK293 cells stably transfected with 5-LOX and FLAP
T3 sequence (P20292 1-161): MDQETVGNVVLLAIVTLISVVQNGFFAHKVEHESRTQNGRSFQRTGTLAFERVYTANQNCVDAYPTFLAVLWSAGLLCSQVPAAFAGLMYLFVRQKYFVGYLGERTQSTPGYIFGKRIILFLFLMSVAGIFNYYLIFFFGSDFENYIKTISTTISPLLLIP
As to the kind of experiment: In situ proximity ligation assay of 5-LOX/FLAP interaction in HEK293 cells. Type of experiment: cell-based. Particulars: HEK293 cells expressing 5-LOX and FLAP, 2.5 μM A23187; 1 d 3 μM. The method, then:
Cell culture. The human embryonic kidney cell line HEK293 was cultured as monolayer at 37 °C and 5 % CO2 in DMEM High glucose containing 10 % heat‐inactivated fetal calf serum (FCS), 100 U/mL penicillin and 100 μg/mL streptomycin. HEK293 cells stably expressing human recombinant 5‐LOX and FLAP were selected by 400 μg/mL geneticin and 200 μg/mL hygromycin B, respectively, as described before.[21]
Analysis of 5‐LOX/FLAP interaction by in situ proximity ligation assay. The manufacturer's protocol[46] for proximity ligation assay was used to detect in situ interaction of 5‐LOX with FLAP in HEK293 cells stably expressing both proteins as reported elsewhere.[24] Cells were pretreated with test compounds for 10 min at 37 °C, then treated with 2.5 μM Ca^2+‐ionophore A23187 for another 10 min, fixed, and incubated with primary antibody overnight as described before.[24] Samples were then incubated for 1 h (37 °C) with species‐specific secondary antibodies conjugated with oligonucleotides (PLA probe anti‐mouse MINUS and anti‐rabbit PLUS). The antibody‐bound oligonucleotides formed a DNA circle by addition of ligase (30 min, 37 °C). […] Protein‐protein‐interactions occurred as magenta fluorescent spots analyzed with an Axiovert 200 M microscope (Carl Zeiss) and a Plan Neofluar×40/1.3 Oil (DIC III) objective (Carl Zeiss).

In another experiment the target is T4, human recombinant 5‐LOX (Homo sapiens, UniProt P09917).
T4 construct: made in house; host or cells: Escherichia coli BL21 (DE3)
T4 sequence (P09917 1-674): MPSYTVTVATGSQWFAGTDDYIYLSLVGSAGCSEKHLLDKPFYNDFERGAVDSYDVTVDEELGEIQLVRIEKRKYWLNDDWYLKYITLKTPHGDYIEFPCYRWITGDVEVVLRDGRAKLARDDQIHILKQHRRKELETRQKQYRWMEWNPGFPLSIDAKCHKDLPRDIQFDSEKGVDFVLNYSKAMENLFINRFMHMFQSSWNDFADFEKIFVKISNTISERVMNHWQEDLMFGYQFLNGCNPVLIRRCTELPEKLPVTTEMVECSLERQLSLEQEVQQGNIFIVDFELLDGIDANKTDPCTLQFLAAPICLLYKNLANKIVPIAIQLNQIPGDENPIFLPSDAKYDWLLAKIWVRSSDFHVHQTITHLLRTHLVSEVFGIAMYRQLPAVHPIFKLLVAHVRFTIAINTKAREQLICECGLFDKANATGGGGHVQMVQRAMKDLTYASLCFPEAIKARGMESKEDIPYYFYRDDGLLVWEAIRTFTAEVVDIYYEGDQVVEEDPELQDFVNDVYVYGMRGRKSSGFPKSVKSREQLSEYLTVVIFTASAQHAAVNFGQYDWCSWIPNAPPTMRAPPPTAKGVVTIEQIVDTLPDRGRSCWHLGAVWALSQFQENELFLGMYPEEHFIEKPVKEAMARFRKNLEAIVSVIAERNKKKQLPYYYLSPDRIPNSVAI
In words: Human recombinant 5-LOX activity assay (cell-free). As to conditions: 20 μM arachidonic acid. Type of experiment: biochemical. The method, then: Human recombinant 5‐LOX activity assay. Human recombinant 5‐LOX was expressed in Escherichia coli (E. coli BL21 (DE3)) cells and partially purified by affinity chromatography using an ATP‐agarose column as described.[22] Semi‐purified 5‐LOX (specific activity: 1.6 ± 0.2 μg 5‐LOX products per μg protein) was diluted in PBS containing EDTA (1 mM) and ATP (1 mM) to a concentration of 0.5 μg mL^−1 and immediately pre‐incubated with the test compounds (1 μL in DMSO; final DMSO concentration: 0.1 %) for 10 min at 4 °C. Samples were pre‐warmed for 30 s at 37 °C, and 5‐LOX product formation was initiated adding 2 mM CaCl2 and 20 μM arachidonic acid. The reaction was stopped after 10 min at 37 °C adding 1 mL ice‐cold methanol. Formed 5‐LOX metabolites (all‐trans isomers of LTB4 and 5‐H(p)ETE) were extracted and an aliquot of 50 μL analyzed by reversed phase‐HPLC (RP‐HPLC) as described.[23] Data were normalized to the vehicle control to avoid variations independent of test compounds.

Experiment [5] concerns the target T3, 5‐LOX/FLAP interaction. On the set-up: method as in PMID 24905297, PMID 28839250. As to conditions: HEK cells, same experimental conditions; cited from earlier work.

Where two headings read alike, the source gives them in different places. A value given as a limit tells only on which side of the number the result lay.

In the case of `O=[N+]([O-])c1cc([N+](=O)[O-])c(-c2ccc(COc3cccc(C(F)(F)F)c3)cc2)cc1F` [1 a], the IC50 in experiment [1] (Homo sapiens, 5 h) is 3.93 ± 0.24 µM; at human recombinant LTC4S, 1.68 ± 0.21 µM. In addition, the “inhibition of LTC4S activity (in words)” value on human recombinant LTC4S is reported as “significantly inhibited LTC4S activity”.
In the case of `O=[N+]([O-])c1cc([N+](=O)[O-])c(-c2ccc(OCc3ccccc3)cc2)cc1F` [1 b], the IC50 at mPGES‐1 [2] was 0.6 ± 1.2 µM; in experiment [1] (Homo sapiens, 5 h), greater than 100 µM; on human recombinant LTC4S, greater than 100 µM. At human recombinant LTC4S, the “inhibition of LTC4S activity (in words)” value was “did not show inhibitory activity”.
With `O=[N+]([O-])c1cc([N+](=O)[O-])c(-c2ccc(COc3cccc4ccccc34)cc2)cc1F` [1 c], the IC50 in experiment [1] (Homo sapiens, 5 h) worked out at 4.18 ± 0.16 µM. At human recombinant LTC4S, the IC50 is greater than 100 µM and the “inhibition of LTC4S activity (in words)” value was “did not show inhibitory activity”.
`O=[N+]([O-])c1cc([N+](=O)[O-])c(-c2ccccc2COc2cccc(C(F)(F)F)c2)cc1F` [1 d]: the “residual mPGES-1 enzyme activity” value on mPGES‐1 [3] (1 μM 1 d) amounted to 83.3%; on mPGES‐1 [3] (10 μM 1 d) it was 21.3%. Further, the “mPGES-1 enzymatic activity after washout” value at mPGES‐1 [3] (10-fold dilution from 10 to 1 μM) turned out to be 72.5%. In addition, the “mechanism of mPGES-1 inhibition” value on mPGES‐1 [3] (washout experiment) was “reversible mechanism of inhibition”. Also, the “effect on 5‐LOX/FLAP interaction (PLA)” value at 5‐LOX/FLAP interaction [4] was “able to block the 5‐LOX/FLAP interaction”. Further, the IC50 was found to be 1.4 ± 0.09 µM in experiment [1] (human neutrophils, 2.5 μM A23187, LTB4, its trans isomers and 5-H(p)ETE); 0.93 ± 0.04 µM on human recombinant LTC4S (microsomes of HEK293 cells expressing human recombinant LTC4S, 1 μM LTA4-methyl ester, read-out: IC50 cell‐free LTC4S); 3.35 ± 0.22 µM on human recombinant 5‐LOX. For the same compound, at human recombinant LTC4S, the “inhibition of LTC4S activity (in words)” value is listed as “significantly inhibited LTC4S activity”.
Turning to `COCCc1ccc(OCc2ccc(-c3cc(F)c([N+](=O)[O-])cc3[N+](=O)[O-])cc2)cc1` [1 e], the IC50 in experiment [1] (Homo sapiens, 5 h) was 3.31 ± 0.27 µM; on human recombinant LTC4S, greater than 100 µM. The “inhibition of LTC4S activity (in words)” value on human recombinant LTC4S is given as “did not show inhibitory activity”.
For `CC(C)c1ccc2c(c1)c(SC(C)(C)C)c(CC(C)(C)C(=O)O)n2Cc1ccc(Cl)cc1` [MK886], the “effect on 5‐LOX/FLAP interaction (PLA), earlier reports” value on 5‐LOX/FLAP interaction [5] is recorded as “does block the interaction”.
Consider `CC(c1cc2ccccc2s1)N(O)C(N)=O` (stereo not drawn) [zileuton], for which the “effect on 5‐LOX/FLAP interaction (PLA), earlier reports” value at 5‐LOX/FLAP interaction [5] is given as “inefficiency”.
